According to article PMC9413440, “An Iterative Approach Guides Discovery of the FabI Inhibitor Fabimycin, a Late-Stage Antibiotic Candidate with In Vivo Efficacy against Drug-Resistant Gram-Negative Infections” (ACS Central Science, 2022):

Tests used:
[1] = tested on: S. aureus ATCC 29213; type: cell-based, Staphylococcus aureus
Protocol: Selection of resistant mutants
Resistant mutants were generated using the large inoculum method. Briefly, S. aureus 29213, E. coli MG1655, and A. baumannii 19606 (~1 x 1010 CFUs) was plated on 100-mm plates (E. coli and A. baumannii) or 150-mm plates (S. aureus) of MH agar containing either 128, 64, or 32 µg/mL fabimycin (for gram-negatives) or 0.125, 0.062, and 0.031 µg/mL fabimycin (for S. aureus). Plates were incubated at 37 °C for 48 h and counted for the presence of colony forming units.
Glycerol stocks of selected colonies were made, and resistant colonies confirmed by growing on agar plates containing the same concentration of fabimycin that they were generated at. […]
Forward 5’-GGG-GCC-AGC-GTT-TCT-TTT-TC-3‘ Parker, 20203
Reverse 5’-AAA-CAT-GGA-GAC-GGT-GCT-GG
Forward 5’-GTG-AGA-TCG-GCA-TGA-CAC-AA-3’ Lin, 20179
Reverse 5’-CTG-AAG-TCC-GCT-ACC-GTT-AT-3’
Compound stability in mammalian plasma […]
Each drug is tested […]
in duplicate. Compounds were diluted from 10 mM DMSO stocks to 1 µM in a 100 mM pH 7.4 phosphate buffer and incubated at 37 °C with 0.5 mg/mL of human, rat, or mouse plasma (BioreclamationIVT, Baltimore, MD). […]
Compound plasma protein binding […]
The standard assay involves equilibrium dialysis, in which compound is allowed to equilibrate between a protein-containing compartment from a protein-free compartment. Each

[2] = tested on: E. coli MG1655; test: Serial passaging; type: cell-based, Escherichia coli; settings: E. coli MG1655, subinhibitory concentration, 21 days
Protocol: Serial passaging procedure was done as reported in literature.5 Briefly, E. coli MG1655 cells were grown in 0.6 mL of MH media containing fabimycin and ciprofloxacin (control) at different concentrations. Cells were added to the respective compounds at 0.25X, 0.5X, 1X, 2X, and 4X to start. At 22-24 hours the cultures were checked for growth. […]
compound at varying concentrations based off of the MIC. This serial passaging was repeated for 21 days. […]
All cells were cultured […]
at 37 °C under a 5% CO2 environment. Cell lines were authenticated by a commercial vendor and inspected visually in house. Cell lines were not tested for Mycoplasma contamination. The media was prepared by the University of Illinois School of Chemical Sciences Cell Media Facility.
H. sapiens HFF-1, A549, and HepG2 cells were seeded (3,000-6,000 cells/well) in a 96-well plate (Greiner Bio-One;

[3] = tested on: S. aureus USA300 LAC; test: Neutropenic thigh infection model; type: in vivo, mouse; settings: neutropenic CD-1 mice, MRSA clinical isolate; 5 mg/kg retro-orbital IV 2 and 7 h postinfection; burden at 24 h
Protocol: Neutropenic thigh infection model
Acclimated CD-1 mice (see above) were rendered neutropenic prior to the experiment via cyclophosphamide treatment. […]
For the gram-positive infection model S. aureus USA300LAC was established intramuscular injection at 2.3 * 10^6 CFU/mouse. Mice were treated with FabI inhibitors at 2 and 7 hours post-infection with burden being assessed at 24 hours post-infection. […]
The protocol to assess fabimycin’s efficacy in A. baumannii-infected mice (strain: AR-0088) was approved by the IACUC at Pharmacology Discovery Services, Taiwan, Ltd. (protocol number: IM003-01282019). In this study, neutropenic female BALB/c mice 7-8 weeks in age from BioLASCO Taiwan (AAALAC-certified Charles River Licensee) weighing 18 ± 2 grams were used. The mice were rendered neutropenic and inoculated in the same method as used for the pharmacokinetic study. […]
Animals were euthanized using compressed CO2 gas in a CO2 gas chamber. […] Bacterial burden in the tissue homogenates was determined by performing 10-fold serial dilutions and plating 0.1 mL of each to nutrient agar plates. Colonies were counted after 18 - 24 h incubation. The colony-forming unit value per tissue (CFU/thigh) was calculated. […]
IM011-12282020). […] Tissues were collected and pathogen burden evaluated by dilution plating technique on nutrient agar plates.

Q: `Cc1c(CN(C)C(=O)/C=C/c2cnc3c(c2)CC[C@H](N)C(=O)N3)oc2ccccc12` [fabimycin] was tested. Which frequency of resistance [1] did it give?
A: The frequency of resistance was 1.8 × 10^–10 to 5.2 × 10^–10.

Q: And the “mutant prevention concentration (MPC)” value [1]?
A: Its value is 0.125 µg/mL.

Q: And the “increase in the MIC after serial passaging” value [2]?
A: Its value is 8 fold.

Q: What about the “reduction of bacterial burden” value [3] of the same compound?
A: Its value is “significantly greater reduction of bacterial burden relative to Debio-1452”.
